Read-outs that look alike come from different tables or passages of the source.
Columns and labels:
[1] = tested on: barnyard grass Echinochloa crusgalli; experiment: Petri dish culture, growth inhibition of root and stalk of barnyard grass; format: in vivo; details: Echinochloa crus-galli, 120 h, 5 days; for inhibition at 1 µg/mL: 1 mg/L; for inhibition at 10 µg/mL: 10 mg/L
Method: (§1) The synthesized compounds were tested for the herbicidal activity on model plants including a monocotyledon (barnyard grass) and a dicotyledon (rape) by the reported Petri dish culture method. The percent inhibitory ratios against the growth of root and stalk of barnyard grass and rape at different dosage concentrations were calculated, and the compounds with appreciable inhibitory potencies are selected and shown in Table 1 and Table 2. Several features of the inhibitory activities can be derived. First, all the compounds have stronger inhibition against the growth of the dicotyledon rape than against the monocotyledon barnyard grass, showing appreciable selectivity.
(§2) The herbicidal activity was examined for the growth inhibition effect of the dicotyledon rape Brassica napus and the monocotyledon barnyard grass Echinochloa crusgalli, using the standard Petri dish test and the pre-emergence treatment procedure. […] Nine mL of the solution was added in a Petri dish of 9 cm diameter and two pieces of filter paper were placed on the dish bottom. Twenty seeds each of rape and barnyard grass were placed on the filter paper. The covered Petri dish was transferred into an artificial climate incubator (MGC-400H, Shantou Keyi Co., Ltd., China), where the conditions were controlled at temperature 23 ± 1 °C, humidity 60 ± 5%, light intensity 10 Klux, and photoperiod 12 h/day. The incubation was continued for 5 days, then the lengths of 10 roots and 10 stems for each type of plant were measured and the mean values were calculated. The percent inhibitory ratios were calculated relative to control plants exposing to distilled water instead of the compound solution.

rape Brassica napus = experiment: Petri dish culture, growth inhibition of root and stalk of rape; format: in vivo; details: Brassica napus, 120 h, 5 days; for inhibition at 1 µg/mL: 1 mg/L; for inhibition at 10 µg/mL: 10 mg/L
Method: as §1, §2

[2] = root growth, read-out: Relative inhibition, root
[3] = stalk growth, read-out: Relative inhibition, stalk

SMILES | inhibition at 1 µg/mL [1, 2] | inhibition at 1 µg/mL [1, 3] | inhibition at 10 µg/mL [1, 2] | inhibition at 10 µg/mL [1, 3] | inhibition at 1 µg/mL (rape Brassica napus; [2]) | inhibition at 1 µg/mL (rape Brassica napus; [3]) | inhibition at 10 µg/mL (rape Brassica napus; [2]) | inhibition at 10 µg/mL (rape Brassica napus; [3]) | melting point
O=c1oc(COc2ccc(F)cc2)nc2ccccc12 [3r, 2-((4-Fluorophenoxy)methyl)-4H-3,1-benzoxazin-4-one] | 62.6% | 42.8% | 96.8% | 57.8% | 81.4% | 55.3% | 99.6% | 87% | 112.5 to 114.6 °C
O=c1oc(COc2ccc(F)cc2)nc2cccc(Cl)c12 [3s, 5-Chloro-2-((4-fluorophenoxy)methyl)-4H-3,1-benzoxazin-4-one] | 61.1% | 11.8% | 91% | 46.3% | 72.8% | 25.7% | 98.6% | 94.8% | 155.9 to 156.7 °C
O=c1oc(COc2ccc(F)cc2)nc2ccc(Cl)cc12 [3t, 6-Chloro-2-((4-fluorophenoxy)methyl)-4H-3,1-benzoxazin-4-one] | 66.3% | 36.4% | 93.2% | 49.1% | 85.5% | 60% | 99.3% | 91.7% | 159.8 to 161.7 °C
O=c1oc(COc2ccc(F)cc2)nc2cc(Cl)ccc12 [3u, 7-Chloro-2-((4-fluorophenoxy)methyl)-4H-3,1-benzoxazin-4-one] | 61.8% | -7.3% | 96.7% | 39% | 92.7% | 65.2% | 99% | 92.2% | 123.6 to 124.9 °C
Cc1ccc2nc(COc3ccc(F)cc3)oc(=O)c2c1 [3v, 2-((4-Fluorophenoxy)methyl)-6-methyl-4H-3,1-benzoxazin-4-one] | 69.9% | 24.1% | 92.2% | 31.7% | 87.7% | 61% | 99.3% | 93.7% | 130.8 to 131.9 °C
COc1cc2nc(COc3ccc(F)cc3)oc(=O)c2cc1OC [3w, 2-((4-Fluorophenoxy)methyl)-6,7-dimethoxy-4H-3,1-benzoxazin-4-one] | 37.5% | 12.8% | 64.5% | 16.4% | 35.2% | 12.8% | 79.7% | 41.4% | 144.7 to 146 °C
Nn1c(COc2ccc(Cl)cc2)nc2cccc(Cl)c2c1=O [4a, 3-Amino-5-chloro-2-((4-chlorophenoxy)methyl)-3H-quinazolin-4-one] | 57.9% | 8.9% | 43.1% | 14.9% | 28.5% | 13.2% | 41.5% | -5.9% | 191.8 to 193.3 °C
Nn1c(COc2ccc(Cl)cc2)nc2ccc(Cl)cc2c1=O [4b, 3-Amino-6-chloro-2-((4-chlorophenoxy)methyl)-3H-quinazolin-4-one] | 33.2% | 20.9% | 9.9% | 11.9% | 27.7% | 14.7% | 46.8% | 13.2% | 178.1 to 179.4 °C
Nn1c(COc2ccc(Cl)cc2)nc2cc(Cl)ccc2c1=O [4c, 3-Amino-7-chloro-2-((4-chlorophenoxy)methyl)-3H-quinazolin-4-one] | 10.4% | 1.4% | 42.1% | 17.9% | 27.7% | -9.3% | 69.7% | 41.6% | 129.5 to 131.6 °C
Cc1ccc2nc(COc3ccc(Cl)cc3)n(N)c(=O)c2c1 [4d, 3-Amino-2-((4-chlorophenoxy)methyl)-6-methyl-3H-quinazolin-4-one] | 16.3% | 11.9% | 35.6% | 7.4% | 26.4% | -14.7% | 31.3% | -3.4% | 177.3 to 178.6 °C
